{
  "source": "patent US7022687B1",
  "about": "“Combination of loteprednol and antihistamines” (Asta Medica AG, priority 1999, dated 2006)",
  "key": {"[1]": {"conditions": "cited from earlier work"}, "[2]": {"test_system": "TNFα release", "assay": "LPS-induced TNFα release in diluted human blood (ELISA)", "format": "cell-based", "method": "In vitro, investigations on the influencing of the release of the proinflammatory cytokine TNFα in human blood of various donors diluted 1:5 were carried out. The stimulation was effected using lipopolysaccharide (LPS) from Salmonella abortus equi (10 μg/ml) over the course of 24 h at 37° C. and 5% CO2 in an incubator. The TNFα release was determined using an ELISA, based on antibodies from Pharmingen."}, "[3]": {"test_system": "young domestic pigs actively sensitized with an antigen (extract from Ascaris suum)", "assay": "Allergen-induced nasal secretion (rhinorrhea) in Ascaris-sensitized young domestic pigs", "format": "in vivo", "conditions": "for Inhibition of nasal secretion: intranasal Ascaris allergen challenge, pigs", "method": "In vivo investigations were carried out on young domestic pigs actively sensitized with an antigen (extract from Ascaris suum). Three weeks later, they were exposed to allergen challenge, which was carried out by intranasal instillation of the Ascaris extract. This local intranasal allergen challenge leads to a very great increase in the nasal secretion (rhinorrhea). The amount of secretion was determined gravimetrically."}},
  "data": [
    {"smiles": "CCOC(=O)O[C@]1(C(=O)OCCl)CC[C@H]2[C@@H]3CCC4=CC(=O)C=C[C@]4(C)[C@H]3[C@@H](O)C[C@@]21C", "note": "[Loteprednol etabonate]", "values": [
      {"measurement": "Water solubility", "setting": "[1]", "result": "virtually water-insoluble"}
    ]},
    {"smiles": "CN1CCCC(n2nc(Cc3ccc(Cl)cc3)c3ccccc3c2=O)CC1", "note": "(stereo not drawn) [Azelastine]", "values": [
      {"measurement": "LPS-induced TNFα release (in words)", "setting": "[2]; administered alone", "result": "remains virtually unchanged"},
      {"measurement": "inhibition at 10 µM", "setting": "[2]; azelastine 10 μmol/l, human blood diluted 1:5, LPS 10 μg/ml, 24 h", "result": 2, "unit": "%"},
      {"measurement": "Inhibition of nasal secretion", "setting": "[3]; azelastine 10 μg/nostril", "result": 15, "unit": "%"},
      {"measurement": "Inhibition of the allergically induced nasal hypersecretion (in words)", "setting": "[3]; used alone at 10 or 20 μg/nostril", "result": "only marginal inhibition"}
    ]},
    {"smiles": "CCOC(=O)O[C@]1(C(=O)OCCl)CC[C@H]2[C@@H]3CCC4=CC(=O)C=C[C@]4(C)[C@H]3[C@@H](O)C[C@@]21C", "note": "[Loteprednol]", "values": [
      {"measurement": "inhibition at 0.001 µM", "setting": "[2]; loteprednol 0.001 μmol/l, human blood diluted 1:5, LPS 10 μg/ml, 24 h", "result": 1, "unit": "%"},
      {"measurement": "inhibition at 0.01 µM", "setting": "[2]; loteprednol 0.01 μmol/l, human blood diluted 1:5, LPS 10 μg/ml, 24 h", "result": 2, "unit": "%"},
      {"measurement": "inhibition at 0.03 µM", "setting": "[2]; loteprednol 0.03 μmol/l, human blood diluted 1:5, LPS 10 μg/ml, 24 h", "result": 8, "unit": "%"},
      {"measurement": "Inhibition of nasal secretion", "setting": "[3]; loteprednol 20 μg/nostril", "result": 8, "unit": "%"}
    ]}
  ]
}
